Results on 1 molecule are retold here after US20150297603A1, “HIGH DRUG LOAD TABLET FORMULATION OF [(1R), 2S]-2-AMINOPROPIONIC ACID 2-[4-(4-FLUORO-2-METHYL-1H-INDOL-5-YLOXY)-5-METHYLPYRROLO[2,1-f][1,2,4]TRIAZIN-6-YLOXY]-1-METHYLETHYL ESTER” (Bristol-Myers Squibb Company, priority 2011, published 2015).

Holding throughout (format): physicochemical
Series [1] can be described thus: Degradation of drug during wet granulation process. The following applies: wet granulation process (water as processing aid). From the text: The use of wet granulation process for brivanib alaninate was not expected to be suitable because brivanib alaninate degrades by hydrolysis. Therefore, any person skilled in the art of pharmaceutical formulation would logically implement all measures to minimize the exposure of drug to water during handling, formulation, processing, and storage.
The manufacturing process of this formulation generally involves mixing the drug with dry powder excipients, such as with one or more binder, disintegrant, and filler. Water is then added to this premix while it is being continuously mixed in a mixer such as a high shear granulator. Alternatively, the binder may not be added as a dry powder to the premix, but dissolved in water. Addition of water with continuous mixing leads to the formation of granules, or granulation. The granules are then dried in dry, hot air using equipment and processes such as fluid bed drying or tray drying. Once dried, the granules may be milled using equipment such as comil or Fitzmil to reduce and/or reduce the width of distribution of particle size of granules. The granules are then mixed with extra-granular ingredients, which may include one or more of disintegrant, filler, glidant, and lubricant. The final blend is then compressed on a tablet press into core tablets. The core tablets may optionally be coated with a nonfunctional film coat.

The nature of series [2]: Stability of solid drug substance on storage. The following applies: stored at room temperature protected from moisture. From the text:
(§1) Its main degradation pathway at neutral and basic pH is hydrolysis to the parent compound, brivanib. Under acidic conditions, it can also undergo diaryl ether cleavage in solution as shown below.

Series [3] in a line: pKa of brivanib alaninate. The settings on record: free base. From the text: (§2) Brivanib alaninate is an ester compound that is formulated as a free base.
Series [4] is described as follows: Stability in solution as a function of pH. The settings on record: at acidic pH and at high pH.
Text: as §2, §1

Another series in a line: pH dependent solubility.
Text: as §2

On to `Cc1cc2c(F)c(Oc3ncnn4cc(OC[C@@H](C)OC(=O)[C@H](C)N)c(C)c34)ccc2[nH]1` [Brivanib alaninate, [(1R), 2S]-2-aminopropionic acid 2-[4-(4-fluoro-2-methyl-1H-indol-5-yloxy)-5-methylpyrrolo[2,1-f][1,2,4]triazin-6-yloxy]-1-methylethyl ester], for which, in series [1], the “degradation of the drug by wet granulation” value was “did not really result in significant degradation”. For the same molecule, the “stability of solid drug substance” value in series [2] is reported as “acceptable stability”. In series [3], the pKa (usually the negative logarithm of the acid dissociation constant) was determined as 6.9. Moreover, in series [4], the degradation entry was “degrades rapidly”. Besides, the solubility entry is on record as “increasing solubility” in the series “pH dependent solubility” (acidic pH); “limited solubility” in the series “pH dependent solubility” (neutral and basic pH).
